target: T1, catalytic domain of the recombinant TACE protein (Homo sapiens, UniProt P78536); assay: TACE FRET assay using TACE cat; type: biochemical; settings: TACE FRET assay, Conc. 1 μM
T1 construct: The catalytic domain of the recombinant TACE protein was expressed and purified; made in house
Experimental: TACE FRET Assay Using TACE Cat
“K” is the IC50. Generally, “n” and “B” are floated, noting that n (Hill slope) should be close to 1 and B (background offset) to 0.
Pro-TNF-α substrate peptide Abz-[…]-Dpa (AnaSpec, San Jose, Calif., WARC-1) was prepared as a 2 mM stock solution in the TACE assay buffer (50 mM Tris-HCl, pH 7.4, 25 mM NaCl, 4% Glycerol, 0.005% Brij 35). The catalytic domain of the recombinant TACE protein was expressed and purified. The TACE protein (1 ug/ml) was pretreated with the inhibitors at various concentrations for 10 min. at room temperature. The reaction was initiated by the addition of the substrate peptide. […] The initial rate (slope) of the reaction was determined using a fluorescence plate reader (Molecular Devices, Spectra Max Gemini XS).

T1 sequence (P78536 223-474 limits assumed): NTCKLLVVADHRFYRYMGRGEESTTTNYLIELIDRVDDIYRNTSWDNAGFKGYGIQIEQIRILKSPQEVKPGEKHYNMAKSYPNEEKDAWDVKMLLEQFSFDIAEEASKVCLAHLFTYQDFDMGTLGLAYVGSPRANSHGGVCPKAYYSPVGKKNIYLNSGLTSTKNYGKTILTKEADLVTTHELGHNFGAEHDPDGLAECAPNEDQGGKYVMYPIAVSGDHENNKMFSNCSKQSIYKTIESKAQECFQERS

| SMILES | TACE Inhibition (%) |
| --- | --- |
| CC#CCOc1ccc(S(=O)(=O)N[C@@H](Cc2cn(Cc3ccccc3OC)c3ccc(C(=O)O)cc23)C(=O)O)cc1 [Example 107] | 7.34% |

same assay, conditions: read-out: TACE Inhibition (%)

| SMILES | inhibition at 1 µM |
| --- | --- |
| CC#CCOc1ccc(S(=O)(=O)N[C@@H](Cc2cn(Cc3ccccc3C)c3ccc(C(=O)O)cc23)C(=O)O)cc1 [Example 104, N-{[4-(but-2-ynyloxy)phenyl]sulfonyl}-5-carboxy-1-(2-methylbenzyl)tryptophan] | 5.79% |
| CC#CCOc1ccc(S(=O)(=O)N[C@@H](Cc2cn(Cc3cccc(C)c3)c3ccc(C(=O)O)cc23)C(=O)O)cc1 [Example 105, N-{[4-(but-2-ynyloxy)phenyl]sulfonyl}-5-carboxy-1-(3-methylbenzyl)tryptophan] | 11% |
| CC#CCOc1ccc(S(=O)(=O)N[C@@H](Cc2cn(Cc3ccc(C)cc3)c3ccc(C(=O)O)cc23)C(=O)O)cc1 [Example 106, N-{[4-(but-2-ynyloxy)phenyl]sulfonyl}-5-carboxy-1-(4-methylbenzyl)tryptophan] | 5.53% |
| CC#CCOc1ccc(S(=O)(=O)N[C@@H](Cc2cn(Cc3cccc(OC)c3)c3ccc(C(=O)O)cc23)C(=O)O)cc1 [Example 108, N-{[4-(but-2-ynyloxy)phenyl]sulfonyl}-5-carboxy-1-(3-methoxybenzyl)tryptophan] | 9.93% |
| CC#CCOc1ccc(S(=O)(=O)N[C@@H](Cc2cn(Cc3ccc(OC)cc3)c3ccc(C(=O)O)cc23)C(=O)O)cc1 [Example 109, N-{[4-(but-2-ynyloxy)phenyl]sulfonyl}-5-carboxy-1-(4-methoxybenzyl)tryptophan] | 7.93% |
| CC#CCOc1ccc(S(=O)(=O)N[C@@H](Cc2cn(Cc3cc(OC)cc(OC)c3)c3ccc(C(=O)O)cc23)C(=O)O)cc1 [Example 110, N-{[4-(but-2-ynyloxy)phenyl]sulfonyl}-5-carboxy-1-(3,5-dimethoxybenzyl)tryptophan] | 8.02% |
| CC#CCOc1ccc(S(=O)(=O)N[C@@H](Cc2cn(Cc3ccccc3C(F)(F)F)c3ccc(C(=O)O)cc23)C(=O)O)cc1 [Example 111, N-{[4-(but-2-ynyloxy)phenyl]sulfonyl}-5-carboxy-1-[2(trifluoromethyl)benzyl]tryptophan] | 10.7% |
| CC#CCOc1ccc(S(=O)(=O)N[C@@H](Cc2cn(Cc3cccc(C(F)(F)F)c3)c3ccc(C(=O)O)cc23)C(=O)O)cc1 [Example 112, N-{[4-(but-2-ynyloxy)phenyl]sulfonyl}-5-carboxy-1-[3-(trifluoromethyl)benzyl]tryptophan] | 5.51% |
| CC#CCOc1ccc(S(=O)(=O)N[C@@H](Cc2cn(Cc3ccc(C(F)(F)F)cc3)c3ccc(C(=O)O)cc23)C(=O)O)cc1 [Example 113, N-{[4-(but-2-ynyloxy)phenyl]sulfonyl}-5-carboxy-1-[4-(trifluoromethyl)benzyl]tryptophan] | -2.04% |
| CC#CCOc1ccc(S(=O)(=O)N[C@@H](Cc2cn(Cc3ccc(OC(F)(F)F)cc3)c3ccc(C(=O)O)cc23)C(=O)O)cc1 [Example 114, N-{[4-(but-2-ynyloxy)phenyl]sulfonyl}-5-carboxy-1-[4-(trifluoromethoxy)benzyl]tryptophan] | 10.3% |
| CC#CCOc1ccc(S(=O)(=O)N[C@@H](Cc2cn(Cc3ccccc3F)c3ccc(C(=O)O)cc23)C(=O)O)cc1 [Example 115, N-{[4-(but-2-ynyloxy)phenyl]sulfonyl}-5-carboxy-1-(2-fluorobenzyl)tryptophan] | 4.29% |
| CC#CCOc1ccc(S(=O)(=O)N[C@@H](Cc2cn(Cc3cccc(F)c3)c3ccc(C(=O)O)cc23)C(=O)O)cc1 [Example 116, N-{[4-(but-2-ynyloxy)phenyl]sulfonyl}-5-carboxy-1-(3-fluorobenzyl)tryptophan] | 9.72% |
| CC#CCOc1ccc(S(=O)(=O)N[C@@H](Cc2cn(Cc3ccc(F)cc3)c3ccc(C(=O)O)cc23)C(=O)O)cc1 [Example 117, N-{[4-(but-2-ynyloxy)phenyl]sulfonyl}-5-carboxy-1-(4-fluorobenzyl)tryptophan] | 10.9% |
| CC#CCOc1ccc(S(=O)(=O)N[C@@H](Cc2cn(Cc3cc(F)cc(F)c3)c3ccc(C(=O)O)cc23)C(=O)O)cc1 [Example 118, N-{[4-(but-2-ynyloxy)phenyl]sulfonyl}-5-carboxy-1-(3,5-difluorobenzyl)tryptophan] | 5.98% |
| CC#CCOc1ccc(S(=O)(=O)N[C@@H](Cc2cn(Cc3ccc(Cl)cc3)c3ccc(C(=O)O)cc23)C(=O)O)cc1 [Example 119, N-{[4-(but-2-ynyloxy)phenyl]sulfonyl}-5-carboxy-1-(4-chlorobenzyl)tryptophan] | 11.7% |
| CC#CCOc1ccc(S(=O)(=O)N[C@@H](Cc2cn(Cc3ccc(C(C)C)cc3)c3ccc(C(=O)O)cc23)C(=O)O)cc1 [Example 120, N-{[4-(but-2-ynyloxy)phenyl]sulfonyl}-5-carboxy-1-(4-isopropylbenzyl)tryptophan] | 10% |
| CC#CCOc1ccc(S(=O)(=O)N[C@@H](Cc2cn(Cc3ccccc3C#N)c3ccc(C(=O)O)cc23)C(=O)O)cc1 [Example 121, N-{[4-(but-2-ynyloxy)phenyl]sulfonyl}-5-carboxy-1-(2-cyanobenzyl)tryptophan] | 14.8% |
| CC#CCOc1ccc(S(=O)(=O)N[C@@H](Cc2cn(Cc3cccc(C#N)c3)c3ccc(C(=O)O)cc23)C(=O)O)cc1 [Example 122, N-{[4-(but-2-ynyloxy)phenyl]sulfonyl}-5-carboxy-1-(3-cyanobenzyl)tryptophan] | -0.34% |
| CC#CCOc1ccc(S(=O)(=O)N[C@@H](Cc2cn(Cc3ccc(C#N)cc3)c3ccc(C(=O)O)cc23)C(=O)O)cc1 [Example 123, N-{[4-(but-2-ynyloxy)phenyl]sulfonyl}-5-carboxy-1-(4-cyanobenzyl)tryptophan] | -2.56% |
| CC#CCOc1ccc(S(=O)(=O)N[C@@H](Cc2cn(Cc3ccc4c(c3)OCO4)c3ccc(C(=O)O)cc23)C(=O)O)cc1 [Example 124, 1-(1,3-benzodioxol-5-ylmethyl)-N-{[4-(but-2-ynyloxy)phenyl]sulfonyl}-5-carboxytryptophan] | 10.2% |
| CC#CCOc1ccc(S(=O)(=O)N[C@@H](Cc2cn(Cc3cccnc3)c3ccc(C(=O)O)cc23)C(=O)O)cc1 [Example 125, N-{[4-(but-2-ynyloxy)phenyl]sulfonyl}-5-carboxy-1-(pyridin-3-ylmethyl)tryptophan] | 6.23% |
| CC#CCOc1ccc(S(=O)(=O)N[C@@H](Cc2cn(Cc3ccc(C(=O)O)cc3)c3ccc(C(=O)O)cc23)C(=O)O)cc1 [Example 126, N-{[4-(but-2-ynyloxy)phenyl]sulfonyl}-5-carboxy-1-(4-carboxybenzyl)tryptophan] | 8.36% |
| CC#CCOc1ccc(S(=O)(=O)N[C@@H](Cc2cn(C)c3ccc(C(=O)O)cc23)C(=O)O)cc1 [Example 127, N-{[4-(but-2-ynyloxy)phenyl]sulfonyl}-5-carboxy-1-methyltryptophan] | -3.22% |
| CC#CCOc1ccc(S(=O)(=O)N[C@@H](Cc2cn(CC)c3ccc(C(=O)O)cc23)C(=O)O)cc1 [Example 128, N-{[4-(but-2-ynyloxy)phenyl]sulfonyl}-5-carboxy-1-ethyltryptophan] | -0.6% |
| CC#CCOc1ccc(S(=O)(=O)N[C@@H](Cc2cn(CC(C)C)c3ccc(C(=O)O)cc23)C(=O)O)cc1 [Example 129, N-{[4-(but-2-ynyloxy)phenyl]sulfonyl}-5-carboxy-1-isobutyltryptophan] | -4.96% |
